Measured values reported in article PMC11456916, “A screen for cell envelope stress uncovers an inhibitor of prolipoprotein diacylglyceryl transferase, Lgt, in Escherichiacoli” (iScience, 2024).
Converted amounts (≈) assume the structure as drawn.

System: E. coli ΔtolC-pore
Test: MIC assay, E. coli ΔtolC-pore
Format: cell-based
Method: For MIC assays, cultures of bacteria were grown in LB broth. Overnight cultures were diluted (1:100) into fresh LB media and grown to the mid-log phase of growth (OD600 ∼0.5). Subcultures were then normalized to an OD600 of 0.1, and diluted (1:5000) into assay media. Assay plates were then incubated for 18 h at 37°C, then OD600 was measured using a Biotek Neo plate reader.

COc1ccc(C(=O)O/N=C(\c2cccs2)C(C)(C)C)cc1 [MAC-0452936, (Z)-2-Pivaloylthiophene O-(4-methoxybenzoyl) oxime]
MIC, E. coli ΔtolC-pore (LB, 18 h): 0.5 µg/mL (≈ 1.58 µM) | activity against E. coli ΔtolC-pore (growth inhibition, in words): active
